Experimental data as given in PubChem BioAssay AID328 (DTP/NCI, 2004).
Values joined by “and” are separate entries in the source; they are usually repeats but may differ in a detail not shown here. Equal values may be shown once. Inconclusive results and toxic doses are left out.

Test system: BDF1 mice, P388 leukemia ip, median survival T/C
Assay: NCI In Vivo Anticancer Drug Screen. Data for tumor model P388 Leukemia (intraperitoneal) in B6D2F1 (BDF1) mice
Details: endpoint: median survival time, higher = longer survival
Outline: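 Steps: implant the tumour, treat one group with compound and another with vehicle, record survival, then divide treated by control.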

[1] = dose: 25.0 mg/kg/injection, schedule: Q01DX009 (ip), vehicle: Klucel (hydroxypropylcellulose) (HPC)
[2] = dose: 25.0 mg/kg/injection, schedule: Q04DX003 (ip), vehicle: saline
[3] = dose: 100.0 mg/kg/injection, schedule: Q04DX003 (ip), vehicle: saline with Tween-80
[4] = dose: 200.0 mg/kg/injection, schedule: Q04DX003 (ip), vehicle: saline with Tween-80
[5] = dose: 400.0 mg/kg/injection, schedule: Q04DX003 (ip), vehicle: saline with Tween-80
[6] = dose: 50.0 mg/kg/injection, schedule: Q04DX003 (ip), vehicle: saline with Tween-80
[7] = dose: 12.5 mg/kg/injection, schedule: Q01DX009 (ip), vehicle: saline with Tween-80
[8] = dose: 25.0 mg/kg/injection, schedule: Q01DX009 (ip), vehicle: saline with Tween-80
[9] = dose: 50.0 mg/kg/injection, schedule: Q01DX009 (ip), vehicle: saline with Tween-80
[10] = dose: 100.0 mg/kg/injection, schedule: Q01DX009 (ip), vehicle: saline with Tween-80
[11] = dose: 75.0 mg/kg/injection, schedule: Q01DX009 (ip), vehicle: Klucel (hydroxypropylcellulose) (HPC)
[12] = dose: 100.0 mg/kg/injection, schedule: Q01DX009 (ip), vehicle: Klucel (hydroxypropylcellulose) (HPC)
[13] = dose: 100.0 mg/kg/injection, schedule: Q04DX003 (ip), vehicle: Klucel (hydroxypropylcellulose) (HPC)
[14] = dose: 200.0 mg/kg/injection, schedule: Q01DX009 (ip), vehicle: Klucel (hydroxypropylcellulose) (HPC)
[15] = dose: 200.0 mg/kg/injection, schedule: Q04DX003 (ip), vehicle: Klucel (hydroxypropylcellulose) (HPC)
[16] = dose: 400.0 mg/kg/injection, schedule: Q04DX003 (ip), vehicle: Klucel (hydroxypropylcellulose) (HPC)

COc1ccc2nc3cc(Cl)ccc3c(NCCCNCCCCNCCCNc3c4ccc(Cl)cc4nc4ccc(OC)cc34)c2c1
T/C (dose: 1.25 mg/kg/injection, schedule: Q01DX009 (ip), vehicle: saline with Tween-80): 116 % of control
T/C (dose: 2.5 mg/kg/injection, schedule: Q01DX009 (ip), vehicle: saline with Tween-80): 107 % of control

c1ccc(C[n+]2cccc3ccccc32)cc1
T/C (dose: 6.25 mg/kg/injection, schedule: Q01DX009 (ip), vehicle: Klucel (hydroxypropylcellulose) (HPC)): 109 % of control
T/C (dose: 6.25 mg/kg/injection, schedule: Q04DX003 (ip), vehicle: saline): 100 % of control
T/C (dose: 12.5 mg/kg/injection, schedule: Q01DX009 (ip), vehicle: Klucel (hydroxypropylcellulose) (HPC)): 90 % of control
T/C (dose: 12.5 mg/kg/injection, schedule: Q04DX003 (ip), vehicle: saline): 100 % of control
T/C [1]: 90 % of control
T/C [2]: 104 % of control

O=C(COc1ccccc1[N+](=O)[O-])Nc1cccnc1
T/C [3]: 100 % of control
T/C [4]: 95 % of control
T/C [5]: 100 % of control

NC(=O)NC1OC(COC(=O)c2ccccc2)C(OC(=O)c2ccccc2)C1OC(=O)c1ccccc1 (stereo not drawn)
T/C [6]: 107 % of control
T/C [3]: 90 % of control and 96 % of control
T/C [4]: 93 % of control
T/C [5]: 87 % of control and 90 % of control

O=c1[nH]cnc2c1nc1n2CCC1
T/C [6]: 90 % of control
T/C [3]: 90 % of control
T/C [4]: 113 % of control

Clc1ccc(N=C(SSC(Cl)(Cl)Cl)SSC(Cl)(Cl)Cl)cc1
T/C [7]: 116 % of control
T/C [8]: 103 % of control
T/C [9]: 109 % of control

O=C(O)/C=C/c1c(Cl)cccc1Cl
T/C [9]: 106 % of control
T/C [10]: 113 % of control

Nc1nc(SCCc2ccccc2)c2[nH]cnc2n1
T/C [10]: 109 % of control
T/C [3]: 104 % of control
T/C (dose: 200.0 mg/kg/injection, schedule: Q01DX009 (ip), vehicle: saline with Tween-80): 100 % of control
T/C [4]: 100 % of control
T/C (dose: 400.0 mg/kg/injection, schedule: Q01DX009 (ip), vehicle: saline with Tween-80): 90 % of control
T/C [5]: 104 % of control

Oc1ccc(Nc2ccccc2)cc1
T/C (dose: 100.0 mg/kg/injection, schedule: Q01DX001 (ip), vehicle: saline): 95 % of control
T/C (dose: 200.0 mg/kg/injection, schedule: Q01DX001 (ip), vehicle: saline): 100 % of control
T/C (dose: 400.0 mg/kg/injection, schedule: Q01DX001 (ip), vehicle: saline): 100 % of control

O=C1c2ccccc2C(=O)N1CN1CCN(c2ccc(F)cc2)CC1
T/C (dose: 50.0 mg/kg/injection, schedule: Q01DX005 (ip), vehicle: saline with Tween-80): 103 % of control
T/C (dose: 100.0 mg/kg/injection, schedule: Q01DX005 (ip), vehicle: saline with Tween-80): 94 % of control
T/C (dose: 200.0 mg/kg/injection, schedule: Q01DX005 (ip), vehicle: saline with Tween-80): 103 % of control

CCCCCn1c(C)cc(/C=C\c2ccc3cc(C)ccc3[n+]2C)c1C
T/C (dose: 0.22 mg/kg/injection, schedule: Q01DX009 (ip), vehicle: saline): 105 % of control and 109 % of control
T/C (dose: 0.33 mg/kg/injection, schedule: Q01DX009 (ip), vehicle: saline): 95 % of control and 110 % of control
T/C (dose: 0.5 mg/kg/injection, schedule: Q01DX009 (ip), vehicle: saline): 109 % of control
T/C (dose: 0.5 mg/kg/injection, schedule: Q04DX003 (ip), vehicle: saline): 118 % of control
T/C (dose: 0.75 mg/kg/injection, schedule: Q01DX009 (ip), vehicle: saline): 90 % of control
T/C (dose: 0.88 mg/kg/injection, schedule: Q04DX003 (ip), vehicle: saline): 108 % of control
T/C (dose: 1.0 mg/kg/injection, schedule: Q04DX003 (ip), vehicle: saline): 120 % of control
T/C (dose: 1.32 mg/kg/injection, schedule: Q04DX003 (ip), vehicle: saline): 112 % of control
T/C (dose: 1.5 mg/kg/injection, schedule: Q01DX009 (ip), vehicle: saline): 90 % of control
T/C (dose: 2.0 mg/kg/injection, schedule: Q04DX003 (ip), vehicle: saline): 104 % of control and 120 % of control
T/C (dose: 3.0 mg/kg/injection, schedule: Q04DX003 (ip), vehicle: saline): 116 % of control

COC12C(COC(=O)NCCO)C3=C(C(=O)C(C)=C(N)C3=O)N1CC1NC12 (stereo not drawn)
T/C (dose: 6.25 mg/kg/injection, schedule: Q01DX009 (ip), vehicle: saline): 209 % of control
T/C (dose: 12.5 mg/kg/injection, schedule: Q01DX009 (ip), vehicle: saline): 228 % of control and 230 % of control
T/C (dose: 25.0 mg/kg/injection, schedule: Q01DX009 (ip), vehicle: saline): 231 % of control and 254 % of control

Cc1nc(N)nc2nc[nH]c12
T/C [7]: 94 % of control
T/C [8]: 96 % of control
T/C [9]: 99 % of control
T/C [10]: 96 % of control

CCN(CC)CCNc1ccc(N=Nc2cnc3ccccc3c2)c2ccccc12
T/C [11]: 95 % of control
T/C (dose: 115.0 mg/kg/injection, schedule: Q01DX009 (ip), vehicle: Klucel (hydroxypropylcellulose) (HPC)): 100 % of control

N#C/C(=C\c1cc(Cl)cc(Cl)c1O)C(/C(C#N)=C/c1cc(Cl)cc(Cl)c1O)c1ccc2c(c1)OCO2 (stereo not drawn)
T/C [3]: 91 % of control
T/C [4]: 100 % of control
T/C [5]: 108 % of control

Cc1ccccc1P(=O)(c1ccccc1)c1ccccc1C
T/C [8]: 90 % of control
T/C [9]: 96 % of control
T/C [10]: 87 % of control

Cc1ccccc1C(Br)C1=CC(C)(C)c2ccccc2C1=O (stereo not drawn)
T/C [12]: 95 % of control
T/C [13]: 100 % of control
T/C [14]: 100 % of control
T/C [15]: 104 % of control
T/C (dose: 400.0 mg/kg/injection, schedule: Q01DX009 (ip), vehicle: Klucel (hydroxypropylcellulose) (HPC)): 95 % of control
T/C [16]: 100 % of control

C=C(CN(CC(=C)C(=O)c1ccccc1)C(C)(C)C)C(=O)c1ccccc1
T/C (dose: 6.25 mg/kg/injection, schedule: Q01DX009 (ip), vehicle: saline with Tween-80): 106 % of control
T/C [7]: 111 % of control
T/C [8]: 103 % of control

Cc1cc(N(CCCl)CCCl)ccc1C=NC1CCCC1
T/C [12]: 150 % of control
T/C [13]: 95 % of control
T/C (dose: 133.0 mg/kg/injection, schedule: Q01DX009 (ip), vehicle: Klucel (hydroxypropylcellulose) (HPC)): 169 % of control
T/C [14]: 188 % of control and 200 % of control
T/C [15]: 108 % of control

NC(=O)C1CCCC12NC(=O)NC2=O (stereo not drawn)
T/C [13]: 109 % of control
T/C [15]: 100 % of control
T/C [16]: 95 % of control

N#Cc1ccccc1NN=Nc1ccccc1-c1nc(N)nc(N)n1
T/C (dose: 12.0 mg/kg/injection, schedule: Q04DX003 (ip), vehicle: saline with Tween-80): 115 % of control
T/C (dose: 12.0 mg/kg/injection, schedule: Q04DX003 (ip), vehicle: saline): 108 % of control
T/C [1]: 100 % of control
T/C (dose: 25.0 mg/kg/injection, schedule: Q04DX003 (ip), vehicle: Klucel (hydroxypropylcellulose) (HPC)): 104 % of control
T/C (dose: 25.0 mg/kg/injection, schedule: Q04DX003 (ip), vehicle: saline with Tween-80): 105 % of control
T/C [2]: 112 % of control
T/C (dose: 35.0 mg/kg/injection, schedule: Q01DX009 (ip), vehicle: Klucel (hydroxypropylcellulose) (HPC)): 100 % of control
T/C (dose: 35.0 mg/kg/injection, schedule: Q04DX003 (ip), vehicle: Klucel (hydroxypropylcellulose) (HPC)): 95 % of control
T/C (dose: 50.0 mg/kg/injection, schedule: Q01DX009 (ip), vehicle: Klucel (hydroxypropylcellulose) (HPC)): 90 % of control
T/C (dose: 50.0 mg/kg/injection, schedule: Q04DX003 (ip), vehicle: Klucel (hydroxypropylcellulose) (HPC)): 104 % of control
T/C [6]: 115 % of control
T/C (dose: 50.0 mg/kg/injection, schedule: Q04DX003 (ip), vehicle: saline): 116 % of control
T/C [11]: 90 % of control and 95 % of control
T/C (dose: 75.0 mg/kg/injection, schedule: Q04DX003 (ip), vehicle: Klucel (hydroxypropylcellulose) (HPC)): 95 % of control
T/C [12]: 122 % of control
